Experimental data: patent US20220402862A1 (Intellia Therapeutics, Inc., priority 2019, published 2022)

Columns and labels:
[1] = RNA encapsulation efficiency of LNPs (Ribogreen fluorescence assay); format: physicochemical; conditions: LNP
Experimental: A fluorescence-based assay (Ribogreen®, ThermoFisher Scientific) is used to determine total RNA concentration and free RNA. Encapsulation efficiency is calculated as (Total RNA-Free RNA)/Total RNA. LNP samples are diluted appropriately with 1× TE buffer containing 0.2% Triton-X 100 to determine total RNA or 1× TE buffer to determine free RNA. Standard curves are prepared by utilizing the starting RNA solution used to make the compositions and diluted in 1× TE buffer +/− 0.2% Triton-X 100. Diluted RiboGreen® dye (according to the manufacturer's instructions) is then added to each of the standards and samples and allowed to incubate for approximately 10 minutes at room temperature, in the absence of light. A SpectraMax M5 Microplate Reader (Molecular Devices) is used to read the samples with excitation, auto cutoff and emission wavelengths set to 488 nm, 515 nm, and 525 nm respectively. Total RNA and free RNA are determined from the appropriate standard curves.
Encapsulation efficiency is calculated as (Total RNA-Free RNA)/Total RNA. The same procedure may be used for determining the encapsulation efficiency of a DNA-based cargo component. In a fluorescence-based assay, for single-strand DNA Oligreen Dye may be used, and for double-strand DNA, Picogreen Dye. Alternatively, the total RNA concentration can be determined by a reverse-phase ion-pairing (RP-IP) HPLC method. Triton X-100 is used to disrupt the LNPs, releasing the RNA. The RNA is then separated from the lipid components chromatographically by RP-IP HPLC and quantified against a standard curve using UV absorbance at 260 nm.

Transthyretin (TTR) = test: Serum TTR ELISA in mice after LNP dosing; format: in vivo, CD-1 female mice; conditions: guide G282 experiments; for Serum TTR % TSS: mouse serum TTR relative to TSS control; for Serum TTR: mouse serum, ELISA
Experimental: CD-1 female mice ranging from 6-10 weeks of age were used in each study. Animals were weighed and grouped according to body weight for preparing dosing solutions based on group average weight. LNPs were dosed via the lateral tail vein in a volume of 0.2 mL per animal (approximately 10 mL per kilogram body weight). The animals were periodically observed for adverse effects for at least 24 hours post dose. For studies measuring in vivo editing in liver, CD-1 female mice were dosed at 0.1 mg/kg unless otherwise noted. Animals were euthanized at 6 or 7 days by ex sanguination via cardiac puncture under isoflurane anesthesia. Liver tissue was collected from each animal for DNA extraction and analysis. Blood was collected into serum separator tubes or into tubes containing buffered sodium citrate for plasma as described herein. Cohorts of mice were measured for editing by Next-Generation Sequencing (NGS).
Blood was collected and the serum was isolated as indicated. The total mouse TTR serum levels were determined using a Mouse Prealbumin (Transthyretin) ELISA Kit (Aviva Systems Biology, Cat. OKIA00111). Briefly, sera were serial diluted with kit sample diluent to a final dilution of 10,000-fold for 0.1 mg/kg dose and final dilutions of 10,000-fold and of 2,500-fold for 0.3 mg/kg. This diluted sample was then added to the ELISA plates and the assay was carried out according to the manufacturer's directions.

[2] = Dynamic light scattering of LNPs: Z-average diameter, number average diameter, PDI; format: physicochemical; conditions: LNP
Experimental: Dynamic Light Scattering (“DLS”) is used to characterize the polydispersity index (“PDI”) and size of the LNPs of the present disclosure. DLS measures the scattering of light that results from subjecting a sample to a light source. PDI, as determined from DLS measurements, represents the distribution of particle size (around the mean particle size) in a population, with a perfectly uniform population having a PDI of zero.
LNP compositions are analyzed for average particle size, polydispersity index (PDI), total RNA content, encapsulation efficiency of RNA, and zeta potential. LNP compositions may be further characterized by lipid analysis, AF4-MALS, NTA, and/or cryo-EM. Average particle size and polydispersity are measured by dynamic light scattering (DLS) using a Malvern Zetasizer DLS instrument or Wyatt NanoStar. LNP samples were diluted with PBS buffer prior to being measured by DLS. Z-average diameter which is an intensity-based measurement of average particle size is reported along with number average diameter and PDI. A Malvern Zetasizer or Wyatt NanoStar instrument is also used to measure the zeta potential of the LNP. Samples are diluted 1:17 (50 μL into 800 μL) in 0.1× PBS, pH 7.4 prior to measurement.

[3] = sg:mRNA 1:1.3, N/P about 6, amine lipid/DSPC/cholesterol/PEG-2k-DMG 50/9/38/3, Table 2, Experiment 1
[4] = sg:mRNA 1:1.3, N/P about 6, 50/9/38/3, Table 2, Experiment 1
[5] = sg:mRNA 1:1, N/P about 6, amine lipid/DSPC/cholesterol/PEG-2k-DMG 50/9/38/3, Table 2, Experiments 2-20
[6] = sg:mRNA 1:1, N/P about 6, 50/9/38/3, Table 2, Experiments 2-20

With CCCCC/C=C\C/C=C\CCCCCCCC(=O)OCC(COC(=O)CCC(OCCCCCCCC)OCCCCCCCC)COC(=O)OCCCN(C)C (stereo not drawn) [Compound 2, 3-((4,4-bis(octyloxy)butanoyl)oxy)-2-((((3-(dimethylamino)propoxy)carbonyl)oxy)methyl)propyl (9Z,12Z)-octadeca-9,12-dienoate] the “Encapsulation (%)” value [1, 3] was 96%, the “Serum TTR % TSS” value (Transthyretin (TTR)) was 90% and the “Serum TTR” value (Transthyretin (TTR)) was 1114 µg/mL. For the same molecule, the “Number mean (nm)” value [2, 4] was 59.17 nm, the PDI [2, 4] was 0.046 and the “Z-avg (nm)” value [2, 4] was 75.64 nm.

In the case of CCCCC/C=C\C/C=C\CCCCCCCC(=O)OCC(COC(=O)CCC(OCCCCCCCC)OCCCCCCCC)COC(=O)OCCCN1CCCC1 (stereo not drawn) [Compound 3, 3-((4,4-bis(octyloxy)butanoyl)oxy)-2-((((3-(pyrrolidin-1-yl)propoxy)carbonyl)oxy)methyl)propyl (9Z,12Z)-octadeca-9,12-dienoate], the “Encapsulation (%)” value [1, 3] is reported as 91%, the “Serum TTR % TSS” value (Transthyretin (TTR)) is reported as 105% and the “Serum TTR” value (Transthyretin (TTR)) is reported as 1297 µg/mL. For the same molecule, the “Number mean (nm)” value [2, 4] was 61.67 nm, the PDI [2, 4] was 0.079 and the “Z-avg (nm)” value [2, 4] was 86.16 nm.

In the case of CCCCC/C=C\C/C=C\CCCCCCCC(=O)OCC(COC(=O)CCC(OCCCCCCCC)OCCCCCCCC)COC(=O)OCCCN(C)CCN(C)C (stereo not drawn) [Compound 4, 13-(((4,4-bis(octyloxy)butanoyl)oxy)methyl)-2,5-dimethyl-10-oxo-9,11-dioxa-2,5-diazatetradecan-14-yl (9Z,12Z)-octadeca-9,12-dienoate], the “Encapsulation (%)” value [1, 3] is reported as 100%, the “Serum TTR % TSS” value (Transthyretin (TTR)) is reported as 109% and the “Serum TTR” value (Transthyretin (TTR)) is reported as 1347 µg/mL. The “Number mean (nm)” value [2, 4] was 44.92 nm, the PDI [2, 4] was 0.129 and the “Z-avg (nm)” value [2, 4] was 72.11 nm.

In the case of CCCCC/C=C\C/C=C\CCCCCCCC(=O)OCC(COC(=O)CCC(OCCCCCCCC)OCCCCCCCC)COC(=O)OCC1CCCN(CC)C1 (stereo not drawn) [Compound 5, 3-((4,4-bis(octyloxy)butanoyl)oxy)-2-(((((1-ethylpiperidin-3-yl)methoxy)carbonyl)oxy)methyl)propyl (9Z,12Z)-octadeca-9,12-dienoate], the “Encapsulation (%)” value [1, 3] is reported as 98%, the “Serum TTR % TSS” value (Transthyretin (TTR)) is reported as 60% and the “Serum TTR” value (Transthyretin (TTR)) is reported as 737 µg/mL. The “Number mean (nm)” value [2, 4] was 50.89 nm, the PDI [2, 4] was 0.059 and the “Z-avg (nm)” value [2, 4] was 66.28 nm.

In the case of CCCCC/C=C\C/C=C\CCCCCCCC(=O)OCC(COC(=O)CCC(OCCCCCCCC)OCCCCCCCC)COC(=O)NCCCN(C)C (stereo not drawn) [Compound 6, 3-((4,4-bis(octyloxy)butanoyl)oxy)-2-((((3-(dimethylamino)propyl)carbamoyl)oxy)methyl)propyl (9Z,12Z)-octadeca-9,12-dienoate], the “Encapsulation (%)” value [1, 3] is reported as 100%, the “Serum TTR % TSS” value (Transthyretin (TTR)) is reported as 90% and the “Serum TTR” value (Transthyretin (TTR)) is reported as 1107 µg/mL. For the same molecule, the “Number mean (nm)” value [2, 4] was 41.82 nm, the PDI [2, 4] was 0.066 and the “Z-avg (nm)” value [2, 4] was 56.86 nm.

With CCCCC/C=C\C/C=C\CCCCCCCC(=O)OCC(COC(=O)CCC(OCCCCCCCC)OCCCCCCCC)COC(=O)NCCCN(CC)CC (stereo not drawn) [Compound 7, 3-((4,4-bis(octyloxy)butanoyl)oxy)-2-((((3-(diethylamino)propyl)carbamoyl)oxy)methyl)propyl (9Z,12Z)-octadeca-9,12-dienoate] the “Encapsulation (%)” value [1, 5] was 99%, the “Serum TTR % TSS” value (Transthyretin (TTR)) was 104% and the “Serum TTR” value (Transthyretin (TTR)) was 940 µg/mL. The “Number mean (nm)” value [2, 6] was 43.91 nm, the PDI [2, 6] was 0.126 and the “Z-avg (nm)” value [2, 6] was 67.61 nm.

With CCCCC/C=C\C/C=C\CCCCCCCC(=O)OCC(COC(=O)CCC(OCCCCCCCC)OCCCCCCCC)COC(=O)NCCCN1CCCC1 (stereo not drawn) [Compound 8, 3-((4,4-bis(octyloxy)butanoyl)oxy)-2-((((3-(pyrrolidin-1-yl)propyl)carbamoyl)oxy)methyl)propyl (9Z,12Z)-octadeca-9,12-dienoate] the “Encapsulation (%)” value [1, 5] was 100%, the “Serum TTR % TSS” value (Transthyretin (TTR)) was 106% and the “Serum TTR” value (Transthyretin (TTR)) was 962 µg/mL. For the same molecule, the “Number mean (nm)” value [2, 6] was 37.17 nm, the PDI [2, 6] was 0.093 and the “Z-avg (nm)” value [2, 6] was 53.88 nm.

With CCCCC/C=C\C/C=C\CCCCCCCC(=O)OCC(COC(=O)CCC(OCCCCCCCC)OCCCCCCCC)COC(=O)OCCN(CC)CC (stereo not drawn) [Compound 9, 3-((4,4-bis(octyloxy)butanoyl)oxy)-2-((((2-(diethylamino)ethoxy)carbonyl)oxy)methyl)propyl (9Z,12Z)-octadeca-9,12-dienoate] the “Encapsulation (%)” value [1, 5] was 89%, the “Serum TTR % TSS” value (Transthyretin (TTR)) was 100% and the “Serum TTR” value (Transthyretin (TTR)) was 865 µg/mL. For the same molecule, the “Number mean (nm)” value [2, 6] was 45.11 nm, the PDI [2, 6] was 0.058 and the “Z-avg (nm)” value [2, 6] was 62.99 nm.

For CCCCC/C=C\C/C=C\CCCCCCCC(=O)OCC(COC(=O)CCC(OCCCCCCCC)OCCCCCCCC)COC(=O)OCCN1CCCC1 (stereo not drawn) [Compound 10, 3-((4,4-bis(octyloxy)butanoyl)oxy)-2-((((2-(pyrrolidin-1-yl)ethoxy)carbonyl)oxy)methyl)propyl (9Z,12Z)-octadeca-9,12-dienoate], the “Encapsulation (%)” value [1, 5] was 90%, the “Serum TTR % TSS” value (Transthyretin (TTR)) was 96% and the “Serum TTR” value (Transthyretin (TTR)) was 871 µg/mL. The “Number mean (nm)” value [2, 6] was 39.12 nm, the PDI [2, 6] was 0.086 and the “Z-avg (nm)” value [2, 6] was 57.21 nm.

For CCCCC/C=C\C/C=C\CCCCCCCC(=O)OCC(COC(=O)CCC(OCCCCCCCC)OCCCCCCCC)COC(=O)OCCCCN(CC)CC (stereo not drawn) [Compound 11, 3-((4,4-bis(octyloxy)butanoyl)oxy)-2-((((4-(diethylamino)butoxy)carbonyl)oxy)methyl)propyl (9Z,12Z)-octadeca-9,12-dienoate], the “Encapsulation (%)” value [1, 5] was 97%, the “Serum TTR % TSS” value (Transthyretin (TTR)) was 78% and the “Serum TTR” value (Transthyretin (TTR)) was 706 µg/mL. For the same molecule, the “Number mean (nm)” value [2, 6] was 68.35 nm, the PDI [2, 6] was 0.022 and the “Z-avg (nm)” value [2, 6] was 85.35 nm.

With CCCCC/C=C\C/C=C\CCCCCCCC(=O)OCC(COC(=O)CCC(OCCCCCCCC)OCCCCCCCC)COC(=O)OCCCCN1CCCC1 (stereo not drawn) [Compound 13, 3-((4,4-bis(octyloxy)butanoyl)oxy)-2-((((4-(pyrrolidin-1-yl)butoxy)carbonyl)oxy)methyl)propyl (9Z,12Z)-octadeca-9,12-dienoate] the “Encapsulation (%)” value [1, 5] was 97%, the “Serum TTR % TSS” value (Transthyretin (TTR)) was 93% and the “Serum TTR” value (Transthyretin (TTR)) was 837 µg/mL. For the same molecule, the “Number mean (nm)” value [2, 6] was 74.6 nm, the PDI [2, 6] was 0.013 and the “Z-avg (nm)” value [2, 6] was 91.12 nm.

With CCCCC/C=C\C/C=C\CCCCCCCC(=O)OCC(COC(=O)CCC(OCCCCCCCC)OCCCCCCCC)COC(=O)OCC1CCCN1C (stereo not drawn) [Compound 14, 3-((4,4-bis(octyloxy)butanoyl)oxy)-2-(((((1-methylpyrrolidin-2-yl)methoxy)carbonyl)oxy)methyl)propyl (9Z,12Z)-octadeca-9,12-dienoate] the “Encapsulation (%)” value [1, 5] was 93%, the “Serum TTR % TSS” value (Transthyretin (TTR)) was 88% and the “Serum TTR” value (Transthyretin (TTR)) was 908 µg/mL. The “Number mean (nm)” value [2, 6] was 45.18 nm, the PDI [2, 6] was 0.091 and the “Z-avg (nm)” value [2, 6] was 64.69 nm.

With CCCCC/C=C\C/C=C\CCCCCCCC(=O)OCC(COC(=O)CCC(OCCCCCCCC)OCCCCCCCC)COC(=O)OC1CCN(CC)CC1 (stereo not drawn) [Compound 17, 3-((4,4-bis(octyloxy)butanoyl)oxy)-2-(((((1-ethylpiperidin-4-yl)oxy)carbonyl)oxy)methyl)propyl (9Z,12Z)-octadeca-9,12-dienoate] the “Encapsulation (%)” value [1, 5] was 98%, the “Serum TTR % TSS” value (Transthyretin (TTR)) was 70% and the “Serum TTR” value (Transthyretin (TTR)) was 727 µg/mL. For the same molecule, the “Number mean (nm)” value [2, 6] was 56.58 nm, the PDI [2, 6] was 0.037 and the “Z-avg (nm)” value [2, 6] was 70.97 nm.
